“And” between values parts separate entries of the source, which are not always exact repeats. Equal values may be shown once.
System: WM3248 melanoma cells, 486 antibodies
Assay: Reverse phase protein arrays (RPPA)
Format: cell-based, Human
Excerpt: Pellets were snap frozen in liquid nitrogen and shipped to MD Anderson Cancer Center core RPPA facility for RPPA analysis (Table S5). Three biological replicates for each sample were generated.
Nomenclatures on the RPPA heatmaps: name_of_antibody.species_of_antibody.status_of_antibody. V - antibody validated; C - validation of antibody in progress; Q - antibody nonspecific; E – under evaluation; antibodies raised in M - mouse, G - goat, R - rabbit, or T - rat.

With CN(C)c1cccc(Nc2cc(-c3ccccc3)nc(C3CCNCC3)n2)c1 [ARN22089, N1,N1-dimethyl-N3-(6-phenyl-2-(piperidin-4-yl)pyrimidin-4-yl)benzene-1,3-diamine] the “RPPA Gab2.R.V” value (10 uM, single samples) was 0.930 and 0.844, the “RPPA Gli1.R.C” value (10 uM, single samples) was 0.975 and 0.972 and the “RPPA Gli3.R.C” value (10 uM, single samples) was 0.999 and 0.965 and 0.950. For the same compound, the “RPPA Glucocorticoid.Receptor.R.V” value (10 uM, single samples) was 1.129 and 1.132 and 0.984, the “RPPA Glutamate.D1.2.R.V” value (10 uM, single samples) was 1.103 and 0.990 and the “RPPA Glutaminase.R.C” value (10 uM, single samples) was 0.915 and 0.958 and 0.933. For the same compound, the “RPPA Granzyme.B.R.V” value (10 uM, single samples) was 0.958 and 0.982 and 0.983, the “RPPA Grp75.R.C” value (10 uM, single samples) was 1.161 and 1.138 and 0.943 and the “RPPA Gys.R.V” value (10 uM, single samples) was 0.976 and 0.935 and 1.023. For the same compound, the “RPPA Gys_pS641.R.V” value (10 uM, single samples) was 0.940 and 1.033 and 1.049, the “RPPA H2AX_pS139.R.C” value (10 uM, single samples) was 1.009 and 0.918 and the “RPPA H2AX_pS140.M.C” value (10 uM, single samples) was 1.079 and 1.061. For the same compound, the “RPPA HER2.M.V” value (10 uM, single samples) was 1.048, the “RPPA HER2_pY1248.R.V” value (10 uM, single samples) was 0.857 and 0.890 and 0.990 and the “RPPA HER3.R.V” value (10 uM, single samples) was 1.151 and 0.962 and 0.842. The “RPPA HER3_pY1289.R.C” value (10 uM, single samples) was 0.893 and 0.994, the “RPPA HES1.R.V” value (10 uM, single samples) was 0.925 and 1.199 and 0.845 and the “RPPA Heregulin.R.V” value (10 uM, single samples) was 0.811 and 0.959 and 0.936. The “RPPA eEF2K.R.V” value (10 uM, single samples) was 1.065, the “RPPA eIF4E.R.V” value (10 uM, single samples) was 1.415 and 0.768 and 0.752 and the “RPPA eIF4E_pS209.R.V” value (10 uM, single samples) was 0.931 and 1.049 and 1.085. For the same compound, the “RPPA eIF4G.R.C” value (10 uM, single samples) was 1.057 and 0.870 and 0.859, the “RPPA MYH11.R.C Average” value (20 uM) was 1.101 and the “RPPA Myosin.IIa.R.C Average” value (20 uM) was 0.941. For the same compound, the “RPPA Myosin.IIa_pS1943.R.V Average” value (20 uM) was 0.973, the “RPPA Myt1.R.C Average” value (20 uM) was 1.012 and the “RPPA N.Cadherin.R.V Average” value (20 uM) was 1.035. For the same compound, the “RPPA N.Ras.M.V Average” value (20 uM) was 0.928, the “RPPA NAPSIN.A.R.C Average” value (20 uM) was 1.046 and the “RPPA NDRG1_pT346.R.V Average” value (20 uM) was 0.991. The “RPPA NDUFB4.R.V Average” value (20 uM) was 1.026, the “RPPA NRF2.R.C Average” value (20 uM) was 0.936 and the “RPPA Notch1.cleaved.R.V Average” value (20 uM) was 0.890. For the same compound, the “RPPA Oct.4.R.C Average” value (20 uM) was 1.121, the “RPPA P.Cadherin.R.C Average” value (20 uM) was 1.190 and the “RPPA PAICS.R.C Average” value (20 uM) was 0.891. For the same compound, the “RPPA PAK1.R.V Average” value (20 uM) was 0.919, the “RPPA PAK_pS474_S602_S560.R.V Average” value (20 uM) was 1.203 and the “RPPA PAK_pT423_T402.R.C Average” value (20 uM) was 1.013. The “RPPA PAR.R.C Average” value (20 uM) was 1.051, the “RPPA PARG.R.C Average” value (20 uM) was 1.310 and the “RPPA PARP.R.V Average” value (20 uM) was 0.981. The “RPPA PAX6.R.V Average” value (20 uM) was 1.013, the “RPPA PAX8.R.C Average” value (20 uM) was 0.970 and the “RPPA PCNA.M.C Average” value (20 uM) was 0.864. The “RPPA PD.L1.R.C Average” value (20 uM) was 0.983, the “RPPA PDH.M.V Average” value (20 uM) was 0.994 and the “RPPA PDHA1.R.V Average” value (20 uM) was 1.030. The “RPPA PDHK1.R.C Average” value (20 uM) was 0.963, the “RPPA PDK1.R.V Average” value (20 uM) was 1.096 and the “RPPA PDK1_pS241.R.V Average” value (20 uM) was 0.972. The “RPPA PEA.15.R.V Average” value (20 uM) was 0.952, the “RPPA PEA.15_pS116.R.V Average” value (20 uM) was 1.019 and the “RPPA PERK.R.V Average” value (20 uM) was 0.988. The “RPPA PGM1.R.V Average” value (20 uM) was 0.940, the “RPPA PHGDH.R.C Average” value (20 uM) was 0.998 and the “RPPA PHLPP.R.V Average” value (20 uM) was 1.124. The “RPPA PI3K.p85.R.C Average” value (20 uM) was 0.900, the “RPPA PI3K.p110.a.R.C Average” value (20 uM) was 0.931 and the “RPPA PKA.a.R.V Average” value (20 uM) was 0.928. For the same compound, the “RPPA PKC.a.b.II_pT638_T641.R.V Average” value (20 uM) was 0.926, the “RPPA PKC.b.II_pS660.R.V Average” value (20 uM) was 1.079 and the “RPPA PKCa.R.V Average” value (20 uM) was 1.559. For the same compound, the “RPPA PKM2.R.C Average” value (20 uM) was 0.899, the “RPPA PLC.gamma1_pS1248.R.V Average” value (20 uM) was 0.895 and the “RPPA PLC.gamma2_pY759.R.V Average” value (20 uM) was 0.983. For the same compound, the “RPPA PLK1.R.C Average” value (20 uM) was 0.920, the “RPPA PMS2.R.V Average” value (20 uM) was 0.986 and the “RPPA PR.R.V Average” value (20 uM) was 0.956. For the same compound, the “RPPA PRAS40.M.C Average” value (20 uM) was 1.227, the “RPPA PRAS40_pT246.R.V Average” value (20 uM) was 1.102 and the “RPPA PRC1_pT481.R.C Average” value (20 uM) was 1.084. The “RPPA Patched.R.C Average” value (20 uM) was 1.079, the “RPPA Paxillin.R.C Average” value (20 uM) was 0.827 and the “RPPA Pdcd4.R.C Average” value (20 uM) was 0.990. The “RPPA Porin.M.V Average” value (20 uM) was 1.051, the “RPPA p21.R.C Average” value (20 uM) was 0.828 and the “RPPA p27.Kip1.R.C Average” value (20 uM) was 1.157. The “RPPA p27_pT157.R.C Average” value (20 uM) was 1.214, the “RPPA p27_pT198.R.V Average” value (20 uM) was 1.156 and the “RPPA p38.MAPK.R.V Average” value (20 uM) was 0.981.

Reference: paper PMC9127750, “Structure-based design of CDC42 effector interaction inhibitors for the treatment of cancer” (Cell reports, 2022)
